Experimental data as given in paper PMC12333940, “A prometabolite strategy inhibits cardiometabolic disease in an ApoE^–/– murine model of atherosclerosis” (JCI Insight, 2025).
Several values for one entry are separate records, joined by “and”; a condition that tells them apart may be missing. Identical values can stand only once.

Key:
[1] = system: ApoE^–/– mice on an HFD; experiment: Flow cytometry of blood, lymph nodes and spleen; type: in vivo, mouse; set-up: Treg / Th17 / F480+CD11b+ Macrophages / iNOS+ Macs / Arg1+ Macs: unit not given here
Procedure: SerBut water was pH adjusted using 10 M NaOH to a final pH of 7.4. […] After 6 weeks, mice were euthanized. The lMLNs, ILNs, spleen, heart, and aorta were harvested and processed for flow cytometry analysis ([67]). […] The remaining liver was fixed with 4% paraformaldehyde and embedded in paraffin for histological analysis.
Flow cytometry was performed using a BD LSRFortessa or a Cytek Aurora full-spectrum cytometer.

[2] = system: ApoE^–/– mice on an HFD; experiment: qPCR of liver lipid metabolism genes; type: in vivo, mouse; set-up: srebf1 / srebf2 / fasn / acly / scd1 / acaca / cpt1a: scale not given here
Procedure: We then asked whether SerBut’s effects on disease pathology and inflammation may be partially mediated by changes in lipid metabolism by measuring lipogenic and lipid oxidation gene expression by qPCR after treatment for 6 weeks (Supplemental Figure 10, F–L).
(§1) For 6 weeks, mice were freely administered water, water containing 150 mM SerBut, or water containing an equimolar amount of NaBut. SerBut water was pH adjusted using 10 M NaOH to a final pH of 7.4. […] In concert, mice were fed an HFD with 42% from fat and 0.2% total cholesterol (Envigo, TD-88137) ad libitum. After 6 weeks, mice were euthanized. The lMLNs, ILNs, spleen, heart, and aorta were harvested and processed for flow cytometry analysis ([67]). The liver was harvested and part was homogenized in tissue protein extraction reagent buffer (Invitrogen, 78510) supplemented with protease inhibitor mini tablets (Thermo Fisher Scientific, PIA32955) for Western blotting and qPCR. The remaining liver was fixed with 4% paraformaldehyde and embedded in paraffin for histological analysis.

[3] = system: ApoE^–/– mice on an HFD; experiment: CD68 immunohistochemistry and Stary plaque severity grading; type: in vivo, mouse; set-up: STARY Score Average: scale not given here
Procedure: as §1
Frozen aortic root sections were fixed in Zamboni fixative for 10 minutes. After TBS wash, slides were loaded on Leica Bond RX automated stainer. Anti–mouse CD68 antibody (BioLegend, catalog 137001, clone FA-11; 1:4000) was applied to tissue sections for 60 minutes of incubation at room temperature. Following TBS wash, tissue sections were incubated with rabbit anti-rat IgG (Thermo Fisher Scientific, 31219) 30 minutes. The antigen-antibody binding was detected using Polymer-HRP (Leica Biosystems, Bond Polymer Refine Detection kit, DS9800). The slides were coverglassed by autocoverslipper (Tissue-Tek Glas g2). Stary plaque severity grading was done as previously described ([42]). Briefly, each individual mouse was scored if there were at least 2 sections showing all 3 leaflets of the aortic valve that could reasonably be scored. Each leaflet was scored individually per aortic valve and subsequently averaged per section. All sections were averaged per mouse for a final score. Sections were graded blinded. Table 1 explains the scoring scale. Quantitative analysis of plaque features was performed using a classifier in QuPath (v.05.0).

[4] = Biodistribution of free butyrate after oral gavage, ApoE–/– mice on HFD; settings: 3 hours after gavage
Procedure: Samples were prepared and derivatized as described previously ([28]). Stock solutions were prepared in water/acetonitrile (ACN) (1:1 v/v): 3-nitrophenylhydrazine (NPH), and 1-ethyl-3-(3-dimethylaminopropyl)carbodiimide (EDC) (in 1% pyridine). The internal standard, 4-methylvaleric acid, was added. Samples were mixed with NPH and EDC stocks at a 1:1:1 volume ratio. The mixture was heated in a heating block at 60°C for 30 minutes. Samples were filtered through 0.22 μm filters and stored at 4°C before analysis.
An Agilent 6460 Triple Quad MS-MS was used to detect the derivatized butyrate. Both derivatized butyrate-NPH and 4-methylvaleric-NPH were detected in negative mode. Column: Thermo Fisher Scientific C18 4.6 × 50 mm, 1.8 μm particle size, at room temperature. Mobile phase A: water with 0.1% v/v formic acid. Mobile phase B: ACN with 0.1% v/v formic acid. Injection volume: 5.0 μL. Flow rate: 0.5 mL/min. Gradient of solvent: 15% mobile phase B at 0.0 minutes; 100% mobile phase B at 3.5 minutes; 100% mobile phase B at 6.0 minutes; 15% mobile phase B at 6.5 minutes. The MS conditions were optimized using pure butyrate-NPH or 4-methylvaleric-NPH at 1 mM. The fragment voltage was set to 135 V, and the collision energy was 18 V. Multiple reaction monitoring (MRM) of 222 → 137 was assigned to butyrate, and MRM of 250 → 137 was assigned to 4-methylvaleric acid as the internal standard. The ratio between MRM of butyrate and 4-methylvaleric acid was used to quantify butyrate concentration.
Three hours after administration, mice were anesthetized under isoflurane, and blood was collected via submandibular vein into EDTA-coated tubes. The tubes were centrifuged, and plasma was collected and frozen at –80°C. […] Organs, including liver, MLNs, ILNs, spleen, lung, heart, aorta, small intestine, and large intestine were collected and then transferred to –80°C until further processing. To extract butyrate from plasma or organs, a 1:1 (v/v) ACN/water solution was used. Plasma was mixed 1:1 with the ACN/water solution and centrifuged to remove denatured proteins. Organs were weighed, transferred to Lysing Matrix D tubes (MP Biomedicals), and combined with the 1:1 v/v ACN/water solution. Samples were then lysed using a FastPrep-24 5G homogenizer (MP Biomedicals) and centrifuged. The supernatants were collected for butyrate measurement by LC-MS/MS. The final butyrate content in each organ was normalized by organ weight.

[5] = Inguinal Lymph Node Flow, individual mice
[6] = Mesenteric Lymph Node Flow, individual mice

In the case of `CCCC(=O)OC[C@H](N)C(=O)O` [SerBut, O-butyryl-L-serine], the “frequency of circulating Ly6G^+CD11b^+ neutrophils” value ([1]; 6 weeks, compared with both NaBut- and water-treated controls) is reported as “significantly reduced”, the “Arg1+ Macs” value [1, 5] is reported as 3.53 and 2.72 and 2.64 and 3.19 and 3.9 and 5.62 and 3.61 and 5.94 and 4.82 and 4.83 and 3.4 and 2.08 and 3.78 and 5.04 and the “F480+CD11b+ Macrophages” value [1, 5] is reported as 0.56 and 0.54 and 0.36 and 0.83 and 0.61 and 1.4 and 0.33 and 0.64 and 0.46 and 0.86 and 0.43 and 0.29. The Th17 [1, 5] was 7.49 and 5.92 and 1.67 and 2.37 and 3.33 and 2.23 and 8.03 and 16.8 and 2.7, the Th17/Treg [1, 5] was 0.5095 and 0.3947 and 0.09489 and 0.1274 and 0.2068 and 0.1161 and 0.4294 and 1.037 and 0.1588 and the Treg [1, 5] was 14.7 and 15 and 17.6 and 18.6 and 16.1 and 19.2 and 18.7 and 16.2 and 17. For the same compound, the “iNOS+ Macs” value [1, 5] was 5.43 and 3.21 and 3.87 and 2.26 and 2.24 and 2.49 and 6.09 and 2.15 and 4.59 and 2.91 and 7.23 and 2.89 and 7.07 and 5.7, the “Th17/Treg cell ratio” value ([1]; MLNs and spleen) was “reduced the Th17/Treg cell ratio” and the “iNOS^+ of CD11b^+F480^+ macrophages” value ([1]; MLNs, not ILNs, compared with controls, but not NaBut-treated mice) was “significantly decreased”. The “regulatory T cells” value ([1]; MLNs, not skin-draining lymph nodes or spleen) was “expanded”, the “Arg1+ Macs” value [1, 6] was 3.56 and 1.85 and 2.39 and 1.1 and 1.07 and 1.12 and 0.97 and 1.19 and 1.91 and 0.93 and 1.08 and 1.16 and 0.95 and the “F480+CD11b+ Macrophages” value [1, 6] was 5.85 and 7.28 and 6.98 and 8.63 and 11.2 and 7.11 and 5.47 and 7.35 and 5.84 and 3.45 and 4.72 and 5.77 and 7.09. The Th17 [1, 6] was 7.78 and 13.7 and 14.7 and 8.43 and 9.66 and 19.2 and 12, the Th17/Treg [1, 6] was 0.5329 and 0.6372 and 0.9423 and 0.493 and 0.6114 and 1.091 and 0.7843 and the Treg [1, 6] was 14.6 and 21.5 and 15.6 and 17.1 and 15.8 and 17.6 and 15.3. The “iNOS+ Macs” value [1, 6] was 0.64 and 1 and 0.46 and 0.71 and 0.58 and 0.74 and 0.6 and 0.68 and 1.54 and 0.88 and 0.65 and 0.69, the Th17 ([1]; Spleen Flow, individual mice) was 0.83 and 1.07 and 1.3 and 0.97 and 1.12 and 1.08 and 1 and 1.34 and the Th17/Treg ([1]; Spleen Flow, individual mice) was 0.115 and 0.1219 and 0.1671 and 0.1127 and 0.16 and 0.145 and 0.1264 and 0.1603. For the same compound, the Treg ([1]; Spleen Flow, individual mice) was 7.22 and 8.78 and 7.78 and 8.61 and 7 and 7.45 and 7.91 and 8.36, the “Blood Neutrophils: CD11b+Ly6G+ %CD45” value ([1]; blood, individual mice) was 12.2 %CD45 and 10.2 %CD45 and 11.9 %CD45 and 16 %CD45 and 15.3 %CD45 and 6.9 %CD45 and 6.35 %CD45 and 13.7 %CD45 and 8 %CD45 and 10.6 %CD45 and 17.9 %CD45 and 2.21 %CD45 and 2.25 %CD45 and 7.63 %CD45 and the “liver expression of Acly” value ([2]; 6 weeks, compared with NaBut-treated mice but not water-treated groups) was “significantly reduced expression”. For the same compound, the “liver expression of Cpt1a” value ([2]; 6 weeks, compared with water-treated groups, P = 0.06) was “strong trend toward reduction”, the acaca ([2]; qPCR, individual mice) was 0.188 and 0.284 and 0.192 and 0.406 and 0.341 and the acly ([2]; qPCR, individual mice) was 0.526 and 0.622 and 0.832 and 0.324 and 0.471. The cpt1a ([2]; qPCR, individual mice) was 0.348 and 0.381 and 0.409 and 0.745 and 0.465, the fasn ([2]; qPCR, individual mice) was 0.409 and 0.404 and 0.103 and 0.193 and 0.312 and the scd1 ([2]; qPCR, individual mice) was 1.631 and 1.826 and 1.024 and 0.978 and 0.7. For the same compound, the srebf1 ([2]; qPCR, individual mice) was 0.853 and 0.562 and 0.47 and 0.606 and 0.321, the srebf2 ([2]; qPCR, individual mice) was 0.511 and 0.812 and 0.428 and 0.961 and 0.372 and the “plaque severity score, CD68^+ stained area and necrotic core area” value ([3]; 6 weeks, compared with water-treated mice) was “significant reduction”. The “STARY Score Average” value ([3]; average per mouse, experiments 1 and 2, grades per the 1st table) was 4.31 and 4.429 and 3.833 and 3.944 and 4.333 and 4 and 3.75 and 3.583, the “CD68+ IHC Quantification CD68 % Lesion” value ([3]; individual mice) was 69.8799 % Lesion and 66.2246 % Lesion and 57.396 % Lesion and 61.0623 % Lesion and 37.3547 % Lesion and 58.9062 % Lesion and 54.5852 % Lesion and the “CD68+ IHC Quantification CD68+ (um2)” value ([3]; individual mice) was 83533.6 um2 and 151477 um2 and 57839.2 um2 and 114375 um2 and 26376.1 um2 and 132530 um2 and 122451 um2. For the same compound, the “CD68+ IHC Quantification Intima % Lesion” value ([3]; individual mice) was 20.6972 % Lesion and 12.9871 % Lesion and 31.9636 % Lesion and 8.967 % Lesion and 42.8946 % Lesion and 25.2201 % Lesion and 37.0252 % Lesion, the “CD68+ IHC Quantification Intima (um2)” value ([3]; individual mice) was 25307.3 um2 and 13303.3 um2 and 35976.1 um2 and 33683.8 um2 and 30916.8 um2 and 58237.6 um2 and 82003.5 um2 and the “CD68+ IHC Quantification Necrotic Core % Lesion” value ([3]; individual mice) was 8.949 % Lesion and 20.1213 % Lesion and 8.471 % Lesion and 28.3702 % Lesion and 18.86 % Lesion and 14.738 % Lesion and 7.7245 % Lesion. The “CD68+ IHC Quantification Necrotic Core (um2)” value ([3]; individual mice) was 10697.9 um2 and 47552.4 um2 and 8399.84 um2 and 53169.3 um2 and 13317 um2 and 32727 um2 and 17678.5 um2, the “free butyrate in liver, ILNs, kidney, spleen, lung and plasma” value [4] was “significant increases” and the “free butyrate in the MLNs” value [4] was “trending increases”. For the same compound, the “free butyrate in the heart and aorta” value ([4]; compared with both NaBut-treated and PBS-treated mice) was “significantly increased free butyrate”.
